Converted amounts (≈) assume the structure as drawn. The source made the active and inactive calls. No cut-off for these calls is given here.
What was measured:
Staphylococcus aureus [1] = assay: Antibacterial activity against […] Staphylococcus aureus ATCC 700699 after 24 hrs by broth microdilution method; assay type: functional
Acinetobacter baumannii = assay: Antibacterial activity against Acinetobacter baumannii ATCC BAA-1605 at 0.78 to 100 uM after 24 hrs by broth microdilution method; assay type: functional, organism-based; conditions: dose microM 0.78-100, time 24.0 hrs
[2] = system: Mycobacterium tuberculosis; assay: Antibacterial activity against Mycobacterium tuberculosis H37Rv at 0.78 to 100 uM after 5 days by resazurin dye based fluorescence assay; assay type: functional, organism-based; conditions: dose microM 0.78-100, time 5.0 day
Staphylococcus aureus [3] = assay: Antibacterial activity against vancomycin-sensitive Staphylococcus aureus T144 infected in Balb/c mouse assessed as increase in wound healing at 20 mg/kg applied topically measured daily for 12 days by microscopic analysis; assay type: functional, organism-based; conditions: time 12.0 day
Staphylococcus aureus [4] = assay: Antibacterial activity against vancomycin-sensitive Staphylococcus aureus T144 infected in Balb/c mouse peritonitis-sepsis model assessed as increase in survival at 20 mg/kg, ip measured for 48 hrs; assay type: functional, organism-based
Staphylococcus aureus [5] = assay: Antibacterial activity against vancomycin-sensitive Staphylococcus aureus T144 infected in Balb/c mouse assessed as reduction in bacterial burden at 20 mg/kg applied topically measured after 12 days by colony counting method; assay type: functional, organism-based; conditions: time 12.0 day
Staphylococcus aureus [6] = assay: Antibacterial activity against methicillin-resistant Staphylococcus aureus USA300 LAC at 0.15 to 25 uM incubated for 24 hrs under low pyruvate containing medium by resazurin dye based fluorescence assay; assay type: functional, organism-based; conditions: dose microM 0.15-25, time 24.0 hrs
HEK293 = assay: Cytotoxicity against HEK293 cells assessed as reduction in cell viability at >12.5 uM measured after 48 hrs by resazurin dye based fluorescence assay; conditions: human, hek293, 48 h
HepG2 = assay: Cytotoxicity against human HepG2 cells assessed as reduction in cell viability at >12.5 uM measured after 48 hrs by resazurin dye based fluorescence assay; conditions: hepg2, 48 h
Staphylococcus aureus [7] = assay: Antibacterial activity against methicillin susceptible Staphylococcus aureus ATCC 25923 at 0.78 to 100 uM after 24 hrs by broth microdilution method; assay type: functional, organism-based; conditions: dose microM 0.78-100, time 24.0 hrs
Enterococcus faecium [8] = assay: Antibacterial activity against vancomycin-resistant Enterococcus faecium ATCC 35667 at 0.78 to 100 uM after 24 hrs by broth microdilution method; assay type: functional, organism-based; conditions: dose microM 0.78-100, time 24.0 hrs
Staphylococcus aureus [9] = assay: Antibacterial activity against methicillin-resistant pyruvate kinase deficient Staphylococcus aureus USA300 LAC at 0.15 to 25 uM incubated for 24 hrs under low pyruvate containing medium by resazurin dye based fluorescence assay; assay type: functional, organism-based; conditions: dose microM 0.15-25, time 24.0 hrs
[10] = biological target: Pyruvate kinase PKM (Oryctolagus cuniculus) (UniProt P11974); assay: Inhibition of rabbit muscle pyruvate kinase up to 12.5 uM using phosphoenolpyruvate as substrate measured for 5 mins by LDH-coupled assay; conditions: dose microM <=12.5, time 5.0 min
Staphylococcus aureus [11] = assay: Inhibition of Staphylococcus aureus ATCC 700699 N-terminal His6-tagged pyruvate kinase expressed in Escherichia coli NiCo21(DE3) at 12.5 uM using phosphoenolpyruvate as substrate measured for 5 mins by LDH-coupled assay
MRC5 = assay: Cytotoxicity against human MRC5 cells assessed as reduction in cell viability at >=12.5 uM measured after 48 hrs by resazurin dye based fluorescence assay; conditions: mrc5, 48 h
Staphylococcus aureus [12] = assay: Bactericidal activity against […] Staphylococcus aureus ATCC 700699 assessed as reduction in bacterial viability at 5 fold MIC incubated for 6 hrs by time kill assay relative to control; assay type: functional
[13] = Selectivity index, ratio of IC50 for cytotoxicity against human THP-1 cells to MIC90 for antibacterial activity against […] Staphylococcus aureus ATCC 700699; assay type: toxicity, cell-based; conditions: read-out: Selectivity Index
Staphylococcus aureus [14] = assay: Bactericidal activity against […] Staphylococcus aureus ATCC 700699 assessed as colony forming units at 5 fold MIC measured after 24 hrs by time kill assay; assay type: functional
THP-1 = assay: Cytotoxicity against human THP-1 cells assessed as reduction in cell viability at >=12.5 uM measured after 48 hrs by resazurin dye based fluorescence assay; conditions: thp-1, 48 h
Enterococcus faecalis [15] = assay: Antibacterial activity against Enterococcus faecalis ATCC 51299 at 0.78 to 100 uM after 24 hrs by broth microdilution method; assay type: functional, organism-based; conditions: dose microM 0.78-100, time 24.0 hrs
Enterococcus faecium [16] = assay: Antibacterial activity against vancomycin-resistant Enterococcus faecium ATCC 700221 at 0.78 to 100 uM after 24 hrs by broth microdilution method; assay type: functional, organism-based; conditions: dose microM 0.78-100, time 24.0 hrs
Enterococcus faecalis [17] = assay: Antibacterial activity against Enterococcus faecalis ATCC 29212 at 0.78 to 100 uM after 24 hrs by broth microdilution method; assay type: functional, organism-based; conditions: dose microM 0.78-100, time 24.0 hrs
[18] = Cytotoxicity against human CLS-54 cells assessed as reduction in cell viability at >12.5 uM measured after 48 hrs by resazurin dye based fluorescence assay; conditions: cls-54, 48 h
[19] = Selectivity index, ratio of IC50 for cytotoxicity against human MRC5 cells to MIC90 for antibacterial activity against […] Staphylococcus aureus ATCC 700699; assay type: toxicity, cell-based; conditions: read-out: Selectivity Index
Staphylococcus aureus [20] = assay: Antibacterial activity against methicillin-resistant Staphylococcus aureus USA300 LAC at 0.15 to 25 uM incubated for 24 hrs under low glucose medium by resazurin dye based fluorescence assay; assay type: functional, organism-based; conditions: dose microM 0.15-25, time 24.0 hrs
Staphylococcus aureus [21] = assay: Antibacterial activity against methicillin susceptible Staphylococcus aureus ATCC 25923 after 24 hrs by broth microdilution method; assay type: functional
[22] = Solubility of compound in pH 7.7 PBS buffer; assay type: physicochemical

Pyruvate kinase PKM (Oryctolagus cuniculus), sequence (P11974 whole entry): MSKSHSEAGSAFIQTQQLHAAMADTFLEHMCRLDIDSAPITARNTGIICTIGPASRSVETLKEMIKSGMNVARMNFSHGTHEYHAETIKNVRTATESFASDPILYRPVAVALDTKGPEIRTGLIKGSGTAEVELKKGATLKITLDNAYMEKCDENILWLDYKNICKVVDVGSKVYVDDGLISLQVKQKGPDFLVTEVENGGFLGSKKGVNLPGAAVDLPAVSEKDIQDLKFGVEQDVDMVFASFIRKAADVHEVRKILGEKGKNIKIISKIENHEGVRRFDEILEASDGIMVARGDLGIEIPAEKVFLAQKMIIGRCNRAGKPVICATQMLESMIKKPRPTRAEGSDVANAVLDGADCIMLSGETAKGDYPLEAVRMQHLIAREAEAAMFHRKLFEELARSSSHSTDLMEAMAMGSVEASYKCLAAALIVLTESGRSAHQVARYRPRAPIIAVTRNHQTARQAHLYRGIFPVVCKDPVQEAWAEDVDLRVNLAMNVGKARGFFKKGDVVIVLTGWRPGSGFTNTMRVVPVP

For c1ccc2c(-c3ccc(-c4c[nH]c5ccccc45)nn3)c[nH]c2c1, the MIC90 (Staphylococcus aureus [1]) was over 100 µM, the Activity (Acinetobacter baumannii) was “inactive” and the Activity [2] was “inactive”.
For CN[C@H](CC(C)C)C(=O)N[C@H]1C(=O)N[C@@H](CC(N)=O)C(=O)N[C@H]2C(=O)N[C@H]3C(=O)N[C@H](C(=O)N[C@H](C(=O)O)c4cc(O)cc(O)c4-c4cc3ccc4O)[C@H](O)c3ccc(c(Cl)c3)Oc3cc2cc(c3O[C@@H]2O[C@H](CO)[C@@H](O)[C@H](O)[C@H]2O[C@H]2C[C@](C)(N)[C@H](O)[C@H](C)O2)Oc2ccc(cc2Cl)[C@H]1O, the Activity (Staphylococcus aureus [3]) was “Active”, the Activity (Staphylococcus aureus [4]) was “Active” and the Activity (Staphylococcus aureus [5]) was “Active”.
For Clc1ccc2[nH]cc(-c3ccnc(-c4c[nH]c5ccc(Cl)cc45)n3)c2c1, the Activity (Staphylococcus aureus [6]) was “Active”, the Activity (HEK293) was “Toxic” and the Activity (HepG2) was “Toxic”. The Activity (Staphylococcus aureus [7]) was “Active”, the Activity (Enterococcus faecium [8]) was “Active” and the Activity (Staphylococcus aureus [9]) was “Active”. The inhibition [10] was “inactive”, the inhibition (Staphylococcus aureus [11]) was “inactive” and the Activity (MRC5) was “Toxic”. For the same compound, the “fold change (FC)” value (Staphylococcus aureus [12]) was 10000, the MIC90 (Staphylococcus aureus [1]) was 3.13 µM (≈ 1.19 µg/mL) and the selectivity ratio [13] was 32. For the same compound, the Activity (Staphylococcus aureus [14]) was under 10 CFU/ml, the Activity (THP-1) was “Toxic” and the Activity (Acinetobacter baumannii) was “Active”. For the same compound, the Activity (Enterococcus faecalis [15]) was “Active”, the Activity (Enterococcus faecium [16]) was “Active” and the Activity (Enterococcus faecalis [17]) was “Active”. The Activity [18] was “Toxic”, the selectivity ratio [19] was 32 and the Activity [2] was “Active”. The Activity (Staphylococcus aureus [20]) was “Active”.
For Oc1ccc2[nH]cc(-c3cnc(-c4c[nH]c5ccc(O)cc45)nc3)c2c1 [HYRTINADINE A], the Activity (Staphylococcus aureus [7]) was “inactive”, the Activity (Enterococcus faecium [8]) was “inactive” and the MIC90 (Staphylococcus aureus [1]) was over 100 µM. For the same compound, the Activity (Acinetobacter baumannii) was “inactive”, the Activity (Enterococcus faecalis [15]) was “inactive” and the Activity (Enterococcus faecium [16]) was “inactive”. For the same compound, the Activity (Enterococcus faecalis [17]) was “inactive” and the Activity [2] was “inactive”.
For c1ccc2c(-c3cnc(-c4c[nH]c5ccccc45)cn3)c[nH]c2c1, the MIC90 (Staphylococcus aureus [1]) was over 100 µM, the Activity (Acinetobacter baumannii) was “inactive” and the Activity [2] was “inactive”.
In the case of Brc1cc2[nH]cc(-c3cnc(-c4c[nH]c5cc(Br)c(Br)cc45)cn3)c2cc1Br, the MIC90 (Staphylococcus aureus [1]) is reported as 1.56 µM (≈ 0.976 µg/mL), the Activity (Acinetobacter baumannii) is reported as “inactive” and the MIC (Staphylococcus aureus [21]) is reported as 1.56 µM (≈ 0.976 µg/mL). The Activity [2] was “inactive”.
For COc1ccc2[nH]cc(-c3cccc(-c4c[nH]c5ccc(OC)cc45)n3)c2c1, the MIC90 (Staphylococcus aureus [1]) was 12.5 µM (≈ 4.62 µg/mL), the Activity (Acinetobacter baumannii) was “inactive” and the Activity [2] was “inactive”.
In the case of COc1ccc2[nH]cc(-c3cnc(-c4c[nH]c5ccc(OC)cc45)cn3)c2c1, the Activity (Staphylococcus aureus [7]) is reported as “inactive”, the Activity (Enterococcus faecium [8]) is reported as “inactive” and the MIC90 (Staphylococcus aureus [1]) is reported as over 100 µM. For the same compound, the Activity (Acinetobacter baumannii) was “inactive”, the Activity (Enterococcus faecalis [15]) was “inactive” and the Activity (Enterococcus faecium [16]) was “inactive”. For the same compound, the Activity (Enterococcus faecalis [17]) was “inactive” and the Activity [2] was “inactive”.
For Brc1ccc2[nH]cc(-c3cnc(-c4c[nH]c5ccc(Br)cc45)cn3)c2c1, the Activity (Staphylococcus aureus [6]) was “Active”, the Activity (Staphylococcus aureus [9]) was “Active” and the Activity (MRC5) was “Toxic”. The “fold change (FC)” value (Staphylococcus aureus [12]) was 10000, the MIC90 (Staphylococcus aureus [1]) was 1.56 µM (≈ 0.73 µg/mL) and the selectivity ratio [13] was 8. For the same compound, the Activity (THP-1) was “Toxic”, the Activity (Acinetobacter baumannii) was “inactive” and the solubility [22] was “Insoluble”. The selectivity ratio [19] was 8, the Activity [2] was “inactive” and the Activity (Staphylococcus aureus [20]) was “Active”.
In the case of Fc1ccc2[nH]cc(-c3cnc(-c4c[nH]c5ccc(F)cc45)nc3)c2c1, the MIC90 (Staphylococcus aureus [1]) is reported as 12.5 µM (≈ 4.33 µg/mL), the Activity (Acinetobacter baumannii) is reported as “inactive” and the Activity [2] is reported as “inactive”.
For Brc1ccc2c(-c3cnc(-c4c[nH]c5cc(Br)ccc45)cn3)c[nH]c2c1, the MIC90 (Staphylococcus aureus [1]) was over 100 µM, the Activity (Acinetobacter baumannii) was “inactive” and the Activity [2] was “inactive”.

From ChEMBL document CHEMBL4699592, “Nature-Inspired (di)Azine-Bridged Bisindole Alkaloids with Potent Antibacterial In Vitro and In Vivo Efficacy against Methicillin-Resistant Staphylococcus aureus” (J Med Chem, 2020)
